No end group written: not given here.
Legend:
PAK4 = conditions: binds in vitro; ATP-competitive; cited from earlier work
Procedure: As the Flag-iBox-PAK4 crystal structure contained bound ATP, which is stabilized by the Inka1 inhibitory peptide (Fig. 3a), we were interested on the effect of the ATP-competitive PAK4 inhibitor PF-03758309, which binds with 10 nM affinity in vitro[45]. […] Thus, PF-03758309 appears to allow PAK4cat to incorporate with sub-stoichiometric levels of GFP–Inka1, consistent with PF-03758309 either reducing the affinity of GFP–Inka1 or allowing PAK4cat inco ...

[1] = tested on: GFP–Inka1:PAK4cat co-crystals; assay: Live imaging of growing GFP-Inka1:PAK4cat crystals, effect of PF-03758309; format: cell-based
Procedure: Live cell imaging of crystal growth and SIM and confocal microscopy
The cells were plated at 50% confluence glass cover slips overnight: plasmid transfection used GFP–iBox–Pak4cat and FLAG–iBox–Pak4cat constructs at a ratio of 4:1, to promote crystal nucleation. The cover slips were transferred to a Chamlide magnetic chamber (Live Cell Instruments, Seoul, Korea) with 5% CO2 at 37 °C for live imaging on an Zeiss Axiovert 200 M live-cell imaging with a × 10 objective. We imaged multiple chosen regions for 8 h at 6-min intervals. To measure crystal growth rate, we used instead a Nikon Eclipse Ti microscope equipped with spinning disk confocal attachment (Yokogawa CSU-22 module) to avoid photo-damage. The cells were imaged at × 60 1.4 numerical aperture (NA) objective at 2-min intervals. For SIM and confocal imaging, cells were fixed in non-hardening mounting media (Vectashield). The slides were imaged by Delta vision OMX SIM with a × 100 1.4 NA objective. […] The three-dimensional stacks were analysed by IMARIS software.

PAK4cat [2] = target: T1, PAK4cat (Homo sapiens, UniProt O96013); assay: In-cellulo crystal formation with PAK4cat; format: cell-based; parameters: PAK4 (286–591); conditions: transfected mammalian cells
T1 sequence (O96013 286-591): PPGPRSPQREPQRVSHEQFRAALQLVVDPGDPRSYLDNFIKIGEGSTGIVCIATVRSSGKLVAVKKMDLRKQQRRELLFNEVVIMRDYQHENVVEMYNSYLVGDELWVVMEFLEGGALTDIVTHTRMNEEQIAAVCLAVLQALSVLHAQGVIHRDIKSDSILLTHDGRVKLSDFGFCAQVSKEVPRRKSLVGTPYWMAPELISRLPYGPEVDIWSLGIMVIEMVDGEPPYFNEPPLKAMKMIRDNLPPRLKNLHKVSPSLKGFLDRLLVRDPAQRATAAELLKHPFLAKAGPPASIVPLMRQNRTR
Procedure: Generation and harvesting of intracellular PAK4 crystals
COS-7, HeLa, HEK293 or U2OS cells (35-mm culture dish or glass coverslip) were typically transfected with 2.5 μg of each plasmid in 2 ml of media using Lipofectamine 2000 (Invitrogen) or the GenomeONE Neo EX haemagglutinating virus of Japan envelope transfection kit (Cosmo Bio Co. Ltd) as per the manufacturer's protocol. Crystals were observed by phase-contrast microscopy using a × 10 objective (Nikon Eclipse TE300) 1–4 days post transfection. The structure of Flag–iBox–PAK4cat (Figs 2 and 3) was determined from crystals grown in COS-7 cells. The cells were harvested 3 days after transfection by incubating in PBS with 0.125% (w/v) trypsin and 25% (v/v) glycerol (Merck) for 30 min. Individual cells containing single crystals were then mounted in 0.1–0.2 mm cryoloops (Hampton Research) and flash cooled in liquid nitrogen.

PAK4cat [3] = target: T1, PAK4cat; assay: In-vitro kinase assay, PAK4cat (phosphorylation of GST-Raf13); format: biochemical; parameters: PAK1 (1–545) and PAK4 (286–591), respectively; 6His (N); made in house; host or cells: Escherichia coli BL21-CodonPlus(DE3); conditions: Fig. 1d; n=3; IC50 from intercepts of the graphs; PAK 50 nM, 10 μM GST-Raf1S338, 10 μM ATP (γ32P), pH 7.3, 30 °C 20 min; peptide preincubated on ice 10 min
Procedure: Purified PAK1 or PAK4 (50 nM in 25–50 μl) were incubated with 10 μM GST-Raf1S338 peptide in 10 μM ATP (2 μCi of γ32P ATP) of kinase buffer (25 mM HEPES, pH 7.3, 0.1% Triton X-100, 50 mM KCl, 10 mM MgCl2, 1 mM dithiothreitol) at 30 °C for 20 min. Samples were analysed by SDS–PAGE or adsorption of the GST substrate mix onto polyvinylidene difluoride membranes, followed by extensive washing to remove free γ32P-ATP. The synthetic peptides of 95% purity, as determined by HPLC and mass spectrometric analyses (GenScript), were soluble in aqueous PBS. Stock solutions (10 mM) were quantified via calculated extinction coefficients and absorbance measurements at 280 nm and stored at −80 °C. The diluted peptides were incubated at the indicated concentrations with the kinase on ice (10 min) before addition of γ32P ATP and subsequent incubation at 30 °C. The synthetic peptide array (Jerini Biotools) was phosphorylated in situ as described previously.

## Cc1nc(Nc2[nH]nc3c2CN(C(=O)N[C@H](CN(C)C)c2ccccc2)C3(C)C)c2sccc2n1 [PF-03758309]
PAK4
  affinity: 10 nM
[1]; 5 μM PF-03758309, elongation phase
  Effect on crystal GFP signal, in words: depleted of GFP signal
[1]; after PF3758309 addition (5 μM), Fig. 6d
  Effect on crystal growth rate, in words: Crystal growth slowed

## Inka1 (255–285): C-terminal 31 amino acid of Inka1 (RPEPELPADVSRFAALMSCRSRQPIICNDVS; UniProt Q96EL1 255-285, looked up, fragment)
PAK4cat [2]
  Induction of intracellular crystals with PAK4cat, in words: able to induce crystals more efficiently than the Inka1 (166–203)

## RGRSRQPLVLGDNC [iBox14]
PAK4cat [3]
  IC50: 5 µM

Source: paper PMC4674680, “An in cellulo-derived structure of PAK4 in complex with its inhibitor Inka1” (Nature Communications, 2015)
